Laboratory results: ChEMBL document CHEMBL3507680, “University of Dundee, Gates Library screen for HepG2 cell viability”

Assay: Human HepG2 cell viability assay in 384 well format
Type: toxicity, cell-based
Parameters: dose 125 nL, time 70.5 hour; concentration not given beside the values
Settings: HepG2 cells, read-out: Inhibition

SMILES | cytotoxicity at 70.5 h [%]
COc1ccccc1CC(=O)NCCCN1CCCC1C(=O)N(C)C (stereo not given) | 2.29
Cc1[nH]c(=O)[nH]c(=O)c1CN1CCCC(CCc2c(F)cccc2F)C1 (stereo not given) | -12.5
Cc1ccc(N2CC3(CCN(C(=O)c4ccoc4)C3)C2)nn1 | -12.3
Cc1cccc(N2CCC(NC(C)c3cccs3)CC2)n1 (stereo not given) | 10.3
NC(=O)CCNC(=O)Cc1cccc(I)c1 | 16.7
COc1ccc(CC(C)Nc2cccc(F)c2)cc1 (stereo not given) | -1.11
O=C(C1CCCC1)N1CCCC(c2nc(O)cc(-c3ccncc3)n2)C1 (stereo not given) | 5.93
CN(C)c1ccccc1C(=O)N1CCCC(c2cccc(C(=O)O)c2)C1 (stereo not given) | -8.42
CCn1ncnc1C1CC(=O)NCc2nc3ccccn3c21 (stereo not given) | -3.8
O=C(NCC(O)c1ccc(F)cc1F)c1cccc(F)c1 (stereo not given) | -2.46
N#Cc1ccc(F)c(CN2CCCC2Cn2cnc3ccccc32)c1 (stereo not given) | 7.39
CN(CC(=O)N1CCCC1Cn1cccn1)c1cnccn1 (stereo not given) | -19.4
Cc1nc2n(n1)CCN(S(=O)(=O)c1ccc(OC(F)(F)F)cc1)C2 | -1.32
CCN1CCn2c(C)cnc2C12CCN(C(=O)C(C)C)CC2 | -15.2
O=C(c1ccccc1O)N1CCN(C(=O)C2CCC2)CC1 | 16.4
Cc1cc(C(=O)N2CCC3(C2)CN(c2cccnc2)C(=O)CN3C)[nH]n1 (stereo not given) | -10.2
c1ccc(Oc2cccc(OC34CCCN(CC3)C4)c2)cc1 (stereo not given) | -12
c1ccc(NC[C@@H]2CCC[C@@H]3CN(Cc4csnn4)C[C@@H]32)nc1 | -5.27
CCc1cccc2cc(CNCCCN3CCOCC3)c(=O)[nH]c12 | 0.0251
N#Cc1cccc(C(=O)N2CCN(c3ncccn3)CC2)c1 | 14.3
Cc1nc(Nc2nncs2)cc(C2CCCN2)n1 (stereo not given) | -4.59
Cc1cnn(CC2CCCN2Cc2coc(-c3ccc(F)cc3)n2)c1 (stereo not given) | -115
Cn1ccnc1CN1CCC2(COCCN(S(=O)(=O)C3CC3)C2)C1 (stereo not given) | -10.6

SMILES | cytotoxicity at 70.5 h [%]
Cc1nn(C)cc1-c1ccnc(N2CCN(c3cnccn3)CC2)n1 | -0.227
CC(NCCCC#N)c1ccc(-c2cccnc2)cc1 (stereo not given) | -2.12
COc1ccc(S(=O)(=O)C(C)C(=O)NCCOc2cccc(C)c2)cc1 (stereo not given) | -3.65
CCN(C(=O)NCc1ccccc1OC(F)F)C(C)c1cccnc1 (stereo not given) | 0.0177
Cc1nc(Nc2nnc(C)s2)cc(C2CCCN2C)n1 (stereo not given) | 7.92
Cc1nc2ccccn2c1CN(Cc1cccnc1)CC1CCCO1 (stereo not given) | 0.351
CCS(=O)(=O)N1CC[C@@H]2[C@H](COCC3CC3)CN(C)C(=O)[C@@H]2CC1 | -5.95
N#Cc1cccc(N2CCCC3(CN(C(=O)[C@H]4CCCO4)CCO3)C2)c1 (stereo not given in full) | -0.958
O=C(c1cccnc1)N(CCO)Cc1cc(Br)ccc1F | -3.63
Cc1n[nH]c(C)c1CC(=O)N1CCN(C)C2(CCNC(=O)CC2)C1 (stereo not given) | -4.03
Cc1cc(OCCC(=O)Nc2cccc(F)c2)nnc1C | 8.29
COc1ccc(C2CCCCCN2S(=O)(=O)N(C)C)cc1 (stereo not given) | -7.96
CCCc1nnc(N2CCC(C3CCN(C)CC3)CC2)o1 | 9.11
CCC(=O)NC1CCCN(C(=O)Nc2cc(-c3ccccc3)on2)C1 (stereo not given) | -10.8
COC(=O)c1cc(NCc2cscn2)ccc1C | -4.82
COc1ncccc1NC(=O)NC1CCOc2ccccc21 (stereo not given) | -14.2
NC(=O)COc1ccc(C(=O)NCCc2ccco2)cc1 | -5.22
CN(CC(=O)NCC(C)(C)c1ccc2c(c1)OCO2)c1cnccn1 | -12.3
COc1ccc(CN2CCC[C@H]2c2nc(-c3cncnc3N)no2)cc1 | 12.8
CN1CCN(C2CCN(CC(=O)NCC(F)(F)F)CC2)C1=O | -6.61
O=C(c1cccnc1)N1CCn2nnc(COc3ccccn3)c2C1 | -14.2
c1ccc2c(c1)SCCC2NCc1ccc(N2CCOCC2)cc1 (stereo not given) | -3.16
O=C1CN(Cc2cn(C3CCN(C4CSCCSC4)CC3)nn2)CCN1 | -13.2

SMILES | cytotoxicity at 70.5 h [%]
CC(C)OCCS(=O)(=O)c1nccn1-c1cccc(F)c1 | -9.1
O=C(CN1CCC[C@@H]1C(=O)O)NCCOc1cccc(C(F)(F)F)c1 | -6.55
O=C(c1cc(-n2cnnn2)ccc1Cl)N1CCCCCC1 | -2.04
CCc1nc(CN(C)C2CCN(CCS(C)(=O)=O)C2)no1 (stereo not given) | 2.72
CC(C)CN1CCCC1c1ccc(C(=O)Nc2cn(C)nn2)s1 (stereo not given) | -0.657
O=C(c1ccc(O)cn1)N1CCOC(Cc2cccc(C(F)(F)F)c2)C1 (stereo not given) | 22.6
CC(C)Oc1cccc(CN(C)C(=O)Nc2cccn(C)c2=O)c1 | 2.82
Cc1ncsc1C(=O)N1CCc2nnc(C3CCCCN3C)n2CC1 (stereo not given) | -2.05
CCOCC1COCCC12CCN(C(=O)CS(C)(=O)=O)CC2 (stereo not given) | -4.64
Cc1ccc2c(c1)CCC2NCc1c(C)nn(CCO)c1C (stereo not given) | -6.83
O=C(O)c1c[nH]c2cc(NS(=O)(=O)c3cccc(Cl)c3F)ccc12 | -10.1
COCCOCC(=O)N(C)Cc1ccc(OCc2cccs2)cc1 | -6.68
O=C(NCc1cnc2n1CCN(Cc1ccoc1)C2)c1ccno1 | -0.405
COCCCNC(=O)Cn1nnc(-c2cc3ccccc3o2)n1 | -13.2
Cc1cccc(-n2nc(CC(C)C)nc2CCCC(N)=O)c1 | -6.23
Cc1cccc(CN2CC[C@H]3OCC[C@@]3(C(=O)N3CCCO3)C2)n1 | -2.84
C1CC(NCc2nc(C3CC3)no2)CN(Cc2noc(C3CC3)n2)C1 (stereo not given) | 21.5
COCC1CN(Cc2cnn(C)c2)Cc2nn(C)cc21 (stereo not given) | -11.4
CN1Cc2ccccc2CC1C(=O)N1CCN(CCS(C)(=O)=O)CC1 (stereo not given) | 5.5
Cc1ccc(C(=O)N2CCC3(CCC(C(=O)NCC4CC4)O3)CC2)o1 (stereo not given) | -12.5
O=S(=O)(CCNCc1ccc(Cl)cc1)N1CCOCC1 | 15.5
Cc1nc2[nH]cc(C(=O)N3CCCCC3c3ccc(F)cc3)c(=O)n2n1 (stereo not given) | 3.11
C[C@]1(O)CN(CCC(N)=O)CC[C@@H]1Oc1cccc(F)c1 | -0.798

SMILES | cytotoxicity at 70.5 h [%]
CNS(=O)(=O)c1ccc(CNC(=O)Nc2cn[nH]c2)cc1 | -5.63
CC(O)CCn1ccc2[nH]c(=O)c(C#N)cc2c1=O (stereo not given) | 4.38
CNC(=O)C1CCN(CC(=O)Nc2cc(C(C)C)no2)CC1 | -1.42
O=C(NCCn1cccc1)C1CCCN(C2CCCC2)C1 (stereo not given) | 7.15
Cn1cccc1C(=O)NC(C)(C(N)=O)c1cccc(Cl)c1 (stereo not given) | -98.6
CN1CCN(C)C2(CCN(Cc3ccc(C4CCCO4)s3)CC2)C1 (stereo not given) | -3.28
CNC(=O)CN1CCOCC2(CCCN(Cc3ccc(F)cc3)C2)C1 (stereo not given) | -9.75
CS(=O)(=O)NC1CCc2[nH]c(=O)ccc2C1 (stereo not given) | -4.24
O=C1OCCN1CCCN1CCCC1c1ccc(O)cc1 (stereo not given) | -3.89
CC(C)NC1CCc2[nH]c(=O)ccc2C1 (stereo not given) | -3.78
O=C1CC2(CCN(C(=O)c3cccc(Cl)c3)CC2)CN1 | -7.17
CCN(Cc1cnn(C)c1)C[C@H]1CC[C@@H](Cc2ccc(CO)cc2)O1 | -3.31
Cc1ccc(-c2nc(CN3CCc4nn(C)c(=O)cc4C3)co2)cc1 | -17
O=C(c1ccccn1)N1CCC(c2nccn2Cc2ccncc2)CC1 | -14.4
O=C(c1coc(-c2ccccc2)n1)N1CCCC1 | 3.66
Oc1c(F)cc(CNc2cccc(-c3nnc[nH]3)c2)cc1F | -9.32
COc1ccc2cc(C3CN(C(=O)CN4CCCC4)CCO3)ccc2c1 (stereo not given) | 2.28
CCn1nc(C)cc1C(=O)NCc1noc(C(C)(C)C)n1 | -1.63
CCc1c(NCc2ccc(F)cc2)cnn1CC(C)C | -6.17
COc1ccc(CN(Cc2cccnc2)CC2CCCO2)c(OC)c1 (stereo not given) | -5.79
CC(C)c1noc(CCCC(=O)N2CCN(Cc3cccnc3)CC2)n1 | -13
CCOCC1CN(S(=O)(=O)Cc2ccccc2)Cc2nccn2C1 (stereo not given) | -3.22
Cc1ccccc1CN(C)C(=O)c1ccoc1 | 3.46

SMILES | cytotoxicity at 70.5 h [%]
CCS(=O)(=O)c1cccc(C(=O)Nc2cccc3c2C(=O)N(C)C3=O)c1 | 31
O=C(NC1CCc2c(ccc(=O)n2CC2CC2)C1)c1ccsc1 (stereo not given) | -1.91
CCOC1COC2(CCN(Cc3ccc(F)cc3)CC2)C1 (stereo not given) | -20.1
CCc1oc(C(=O)N2CCCC(c3nnn[nH]3)C2)cc1C (stereo not given) | -4.85
OCC1(O)CCCN(Cc2noc(-c3ccccc3)n2)C1 (stereo not given) | -10.2
c1ccc2ncc(CC3CCNCC3)cc2c1 | 13.4
O=c1[nH]cnc2[nH]c(N3CCOCC3)nc12 | 26.5
Cc1nc(CN(C)C2CCN(CCc3cccs3)C2)no1 (stereo not given) | 23.7
CS(=O)(=O)c1cc(Cl)cnc1C1CCN(C(=O)C2CCOCC2)CC1 | 9.7
Cc1ccc2oc(CNC(C)c3nnc4n3CCCC4)cc2c1 (stereo not given) | 5.79
COCCOc1cccc(CNCC2CN(C)CCO2)c1 (stereo not given) | -0.0199
Cc1cc(CNC2(c3ccccc3F)CC2)no1 | -4.02
CC(C)N(C)C(=O)c1ccc(Cl)c(NC(=O)CCN2C(=O)CCC2=O)c1 | -9.99
CC(=O)N1CCN(CCNC(=O)c2nc3ccccc3c(=O)[nH]2)CC1 | -7.43
O=C1Nc2ccccc2CC12CCCN2Cc1ccc(F)cc1 (stereo not given) | 9.33
CCN(CC)CC(=O)NCc1cccnc1-n1cnc2ccccc21 | -3.36
CC(C)n1cc(CN2CCCN(C(=O)CC3CCCO3)CC2)cn1 (stereo not given) | -4.54
O=C(O)c1ccc(S(=O)(=O)Nc2ccccc2CC(F)(F)F)c(F)c1 | -15.6
CNS(=O)(=O)CCNC(=O)[C@@]12CNC[C@@H]1CN(C1CCCC1)C2 | -0.951
COCCCC(=O)NCc1cccc(NC(N)=O)c1 | -3.29
CN(CC1CCOC1)S(=O)(=O)c1cccc(C(=O)N2CCCCCC2)c1 (stereo not given) | -14.8
Cc1ccccc1C(=O)N1CCC(n2nnc3cc(F)ccc32)CC1 | -12.1
Cc1ccccc1N1CC2(CCCCN2CC2CC2)CC1=O (stereo not given) | -3.78
